What follows are compounds tested on HBV (assay: In vitro anti-HBV activity in HepG2.2.15 cell line (intracellular HBV DNA by qPCR at 1 μM)). Conditions: Hepatitis B virus, 144 h; HepG2.2.15 cells, 1 μM compound, 6 days, intracellular HBV DNA as percentage compared to vehicle control (0.5% DMSO).
Type: cell-based
Procedure: The stable transfected HBV cell line, called HepG2.2.15 cells was a valuable model with high reproducibility and commonly used for drug screening. To identify the anti-HBV activity, HepG2.2.15 cells were seeded at 5×10^5 cells/well with high glucose Dulbecco's modified Eagle medium (DMEM) containing 10% heat inactivated fetal bovine serum (FBS), 300 mg/L G418, non-essential amino acids (NEAA) 100 units/ml Antibiotic-Antimycotic, and allowed to stand for an overnight in an incubator set at 37° C. and 5% C02. HepG2.2.15 cells in each well were treated with the medium containing a compound (1 μM with 0.5% dimethyl sulfoxide (DMSO final concentration) for three days in the incubator. After that the medium was removed and fresh medium containing the compound was added to the cells for another 3 days. After 6 days of treatment, intracellular HBV DNA was extracted and determined by using quantitative real-time PCR (qPCR) technique with specific primers. Intrahepatic HBV DNA viral load was reported as percentage compared to vehicle control (0.5% DMSO) as shown in Table A.
“B” means % ranging between 80 and 90; “C” means % ranging between 70 and 80; “D” means % ranging between 60 and 70; “E” means % ranging between 45 and 60, “F” means %<45.

| SMILES | activity at 1 µM [%] |
| --- | --- |
| Cc1ccc(C(=O)N2CC[C@H](C(=O)Nc3cc(F)c(F)c(F)c3)C2)[nH]1 [Example 1, (S)-1-(5-methyl-1H-pyrrole-2-carbonyl)-N-(3,4,5-trifluorophenyl)pyrrolidine-3-carboxamide] | 45 to 60 |
| O=C(Nc1cc(F)c(F)c(F)c1)[C@H]1CCN(C(=O)c2sccc2Cl)C1 [Example 3, (S)-1-(3-chlorothiophene-2-carbonyl)-N-(3,4,5-trifluorophenyl)pyrrolidine-3-carboxamide] | 70 to 80 |
| Cc1cc(Cl)c(C(=O)N2CC[C@H](C(=O)Nc3cc(F)c(F)c(F)c3)C2)s1 [Example 5, (S)-1-(3-chloro-5-methylthiophene-2-carbonyl)-N-(3,4,5-trifluorophenyl)pyrolidine-3-carboxamide] | 80 to 90 |
| O=C(Nc1cc(F)c(F)c(F)c1)[C@H]1CCN(C(=O)c2cccc3cc[nH]c23)C1 [Example 6, (S)-1-(1H-indole-7-carbonyl)-N-(3,4,5-trifluorophenyl)pyrrolidine-3-carboxamide] | > 90 |
| O=C(Nc1cc(F)c(F)c(F)c1)[C@H]1CCN(C(=O)c2cc3sccc3[nH]2)C1 [Example 7, (S)-1-(4H-thieno[3,2-b]pyrrole-5-carbonyl)-N-(3,4,5-trifluoro-phenyl)pyrrolidine-3-carboxamide] | 60 to 70 |
| N#Cc1ccc2[nH]c(C(=O)N3CC[C@H](C(=O)Nc4cc(F)c(F)c(F)c4)C3)cc2c1 [Example 8, (S)-1-(5-cyano-1H-indole-2-carbonyl)-N-(3,4,5-trifluorophenyl)pyrrolidine-3-carboxamide] | 80 to 90 |
| O=C(Nc1cc(F)c(F)c(F)c1)[C@H]1CCN(C(=O)c2cc3occc3[nH]2)C1 [Example 9, (S)-1-(4H-furo[3,2-b]pyrrole-5-carbonyl)-N-(3,4,5-trifluorophenyl)pyrrolidine-3-carboxamide] | 80 to 90 |
| O=C(Nc1cc(F)c(F)c(Br)c1)[C@H]1CCN(C(=O)c2cc3ccccc3[nH]2)C1 [Example 10, (S)—N-(3-bromo-4,5-difluorophenyl)-1-(1H-indole-2-carbonyl)pyrrolidine-3-carboxamide] | 70 to 80 |
| O=C(Nc1cc(F)c(F)c(F)c1)[C@H]1CCN(C(=O)c2ccc(C(F)F)[nH]2)C1 [Example 11, (S)-1-(5-(difluoromethyl)-1H-pyrrole-2-carbonyl)-N-(3,4,5-trifluorophenyl)pyrrolidine-3-carboxamide] | 70 to 80 |
| COc1cc2cc(C(=O)N3CC[C@H](C(=O)Nc4cc(F)c(F)c(F)c4)C3)[nH]c2cn1 [Example 12, (S)-1-(5-methoxy-1H-pyrrolo[2,3-c]pyridine-2-carbonyl)-N-(3,4,5-trifluorophenyl)pyrrolidine-3-carboxamide] | 80 to 90 |
| Cc1ccc2cc(C(=O)N3CC[C@H](C(=O)Nc4cc(F)c(F)c(F)c4)C3)[nH]c2c1 [Example 13, (S)-1-(6-methyl-1H-indole-2-carbonyl)-N-(3,4,5-trifluorophenyl)pyrrolidine-3-carboxamide] | 60 to 70 |
| O=C(Nc1cc(F)c(F)c(F)c1)[C@H]1CCN(C(=O)c2cc3ncccc3[nH]2)C1 [Example 14, (S)-1-(1H-pyrrolo[3,2-b]pyridine-2-carbonyl)-N-(3,4,5-trifluorophenyl)pyrrolidine-3-carboxamide] | 70 to 80 |
| Cc1cc(C(=O)N2CC[C@H](C(=O)Nc3cc(F)c(F)c(F)c3)C2)[nH]c1C [Example 15, (S)-1-(4,5-dimethyl-1H-pyrrole-2-carbonyl)-N-(3,4,5-trifluorophenyl)pyrrolidine-3-carboxamide] | 60 to 70 |
| O=C(Nc1cc(F)c(F)c(F)c1)[C@H]1CCN(C(=O)c2[nH]ccc2Cl)C1 [Example 16, (S)-1-(3-chloro-1H-pyrrole-2-carbonyl)-N-(3,4,5-trifluorophenyl)pyrrolidine-3-carboxamide] | > 90 |
| C[C@H]1[C@@H](C(=O)Nc2cc(F)c(F)c(F)c2)CCN1C(=O)c1cc2cccnc2[nH]1 [Example 17, (2S,3S)-2-methyl-1-(1H-pyrrolo[2,3-b]pyridine-2-carbonyl)-N-(3,4,5-trifluorophenyl) pyrrolidine-3-carboxamide] | 60 to 70 |
| N#Cc1cc(NC(=O)[C@H]2CCN(C(=O)c3cc4cccnc4[nH]3)C2)ccc1F [Example 18, (S)—N-(3-cyano-4-fluorophenyl)-1-(1H-pyrrolo[2,3-b]pyridine-2-carbonyl)pyrrolidine-3-carboxamide] | 70 to 80 |
| C[C@H]1[C@@H](C(=O)Nc2ccc(F)c(C#N)c2)CCN1C(=O)c1cc2cccnc2[nH]1 [Example 21, (2S,3S)—N-(3-cyano-4-fluorophenyl)-2-methyl-1-(1H-pyrrolo[2,3-b]pyridine-2-carbonyl) pyrrolidine-3-carboxamide] | > 90 |

| SMILES | activity at 1 µM [%] |
| --- | --- |
| N#Cc1cc(NC(=O)[C@H]2CCN(C(=O)c3ccc(Cl)[nH]3)C2)ccc1F [Example 22, (S)-1-(5-chloro-1H-pyrrole-2-carbonyl)-N-(3-cyano-4-fluorophenyl)pyrrolidine-3-carboxamide] | 60 to 70 |
| O=C(Nc1cc(F)c(F)c(F)c1)[C@H]1CCN(C(=O)c2cc3nccnc3[nH]2)C1 [Example 23, (S)-1-(5H-pyrrolo[2,3-b]pyrazine-6-carbonyl)-N-(3,4,5-trifluorophenyl)pyrrolidine-3-carboxamide] | 70 to 80 |
| Cc1cc(NC(=O)[C@H]2CCN(C(=O)c3cc4cccnc4[nH]3)C2)ccc1F [Example 24, (S)—N-(4-fluoro-3-methylphenyl)-1-(1H-pyrrolo[2,3-b]pyridine-2-carbonyl)pyrrolidine-3-carboxamide] | 60 to 70 |
| O=C(Nc1cc(F)c(F)c(F)c1)[C@H]1CCN(C(=O)c2nc3ccccc3[nH]2)C1 [Example 25, (S)-1-(1H-benzo[d]imidazole-2-carbonyl)-N-(3,4,5-trifluorophenyl)pyrrolidine-3-carboxamide] | 60 to 70 |
| O=C(Nc1cc(F)c(F)c(F)c1)[C@H]1CCN(C(=O)c2c[nH]c3ccccc23)C1 [Example 26, (S)-1-(1H-indole-3-carbonyl)-N-(3,4,5-trifluorophenyl)pyrrolidine-3-carboxamide] | 80 to 90 |
| O=C(Nc1cc(F)c(F)c(F)c1)[C@H]1CCN(C(=O)c2ncc[nH]2)C1 [Example 27, (S)-1-(1H-imidazole-2-carbonyl)-N-(3,4,5-trifluorophenyl)pyrrolidine-3-carboxamide] | > 90 |
| O=C(Nc1cc(F)c(F)c(F)c1)[C@H]1CCN(C(=O)c2nccs2)C1 [Example 28, (S)-1-(thiazole-2-carbonyl)-N-(3,4,5-trifluorophenyl)pyrrolidine-3-carboxamide] | > 90 |
| Cc1c[nH]nc1C(=O)N1CC[C@H](C(=O)Nc2cc(F)c(F)c(F)c2)C1 [Example 29, (S)-1-(4-methyl-1H-pyrazole-3-carbonyl)-N-(3,4,5-trifluorophenyl)pyrrolidine-3-carboxamide] | > 90 |
| O=C(Nc1cc(F)c(F)c(F)c1)[C@H]1CCN(C(=O)c2cnc[nH]2)C1 [Example 30, (S)-1-(1H-imidazole-5-carbonyl)-N-(3,4,5-trifluorophenyl)pyrrolidine-3-carboxamide] | > 90 |
| Cc1n[nH]cc1C(=O)N1CC[C@H](C(=O)Nc2cc(F)c(F)c(F)c2)C1 [Example 31, (S)-1-(3-methyl-1H-pyrazole-4-carbonyl)-N-(3,4,5-trifluorophenyl)pyrrolidine-3-carboxamide] | > 90 |
| O=C(Nc1ccc(F)c(Cl)c1)[C@H]1CCN(C(=O)c2ncc[nH]2)C1 [Example 32, (S)—N-(3-chloro-4-fluorophenyl)-1-(1H-imidazole-2-carbonyl)pyrrolidine-3-carboxamide] | 80 to 90 |
| Cc1ccc(C(=O)N2CC[C@H](C(=O)Nc3ccc(F)c(Cl)c3)C2)[nH]1 [Example 33, (S)—N-(3-chloro-4-fluorophenyl)-1-(5-methyl-1H-pyrrole-2-carbonyl)pyrrolidine-3-carboxamide] | 80 to 90 |
| Cc1cc(C)c(C(=O)N2CC[C@H](C(=O)Nc3cc(F)c(F)c(F)c3)C2)[nH]1 [Example 34, (S)-1-(3,5-dimethyl-1H-pyrrole-2-carbonyl)-N-(3,4,5-trifluorophenyl)pyrrolidine-3-carboxamide] | > 90 |
| O=C(Nc1cc(F)c(F)c(F)c1)[C@H]1CCN(C(=O)c2ccc3cc[nH]c3c2)C1 [Example 35, (S)-1-(1H-indole-6-carbonyl)-N-(3,4,5-trifluorophenyl)pyrrolidine-3-carboxamide] | 70 to 80 |
| O=Cc1c[nH]c2cc(C(=O)N3CC[C@H](C(=O)Nc4cc(F)c(F)c(F)c4)C3)ccc12 [Example 36, (S)-1-(3-formyl-1H-indole-6-carbonyl)-N-(3,4,5-trifluorophenyl)pyrrolidine-3-carboxamide] | 70 to 80 |
| O=C(Nc1cc(F)c(F)c(F)c1)[C@H]1CCN(C(=O)c2ccc3c(CNCCO)c[nH]c3c2)C1 [Example 37, (S)-1-(3-(((2-hydroxyethyl)amino)methyl)-1H-indole-6-carbonyl)-N-(3,4,5-trifluorophenyl) pyrrolidine-3-carboxamide] | > 90 |
| CC(=O)c1c[nH]c(C(=O)N2CC[C@H](C(=O)Nc3cc(F)c(F)c(F)c3)C2)c1 [Example 38, (S)-1-(4-acetyl-1H-pyrrole-2-carbonyl)-N-(3,4,5-trifluorophenyl)pyrrolidine-3-carboxamide] | > 90 |

— patent publication US20230391752A1, “PYRROLIDINE-3-CARBOXAMIDE DERIVATIVES AND RELATED USES” (Chulalongkorn University, priority 2020, published 2023)
